In patent US4713445A, “Renin inhibitors and treatments using them” (priority 1983, dated 1987) one finds IC50 data, which are given here for 27 molecules.

Read-outs that look alike come from different tables or passages of the source. *1 amine or outer side, *2 acyl side, *3 side chain or, on linkers, in order; H or OH if unused. Where a SMILES comes first, the peptide text is derived from it. Where no end group is shown, it is not given here. [ ]: non-standard residue; d: D form. The star is where a group is joined. Leuψ(CH2NH)ValIleHisOH = CC[C@H](C)[C@H](NC(=O)[C@@H](NC[C@H](CC(C)C)N*)C(C)C)C(=O)N[C@@H](Cc1c[nH]cn1)C(=O)O; X2 = CC(C)C[C@@H](CN[C@H](C(=O)N[C@@H](Cc1c[nH]cn1)C(=O)NCCCN)C(C)C)N*; X1 = CC(C)C[C@H](N[*:1])[C@@H](O)C[C@H](C(=O)[*:2])C(C)C; X4 = CC(C)C[C@H](N[*:1])[C@@H](O)CCC(=O)[*:2]; Boc = CC(C)(C)OC(=O)*

For this experiment, the target named is T1, human renin (Homo sapiens, UniProt P00797).
T1 construct: angiotensin-I released from human renin substrate by human resin in human plasma; from tissue; host or cells: human plasma (containing EDTA)
T1 sequence (P00797 67-406): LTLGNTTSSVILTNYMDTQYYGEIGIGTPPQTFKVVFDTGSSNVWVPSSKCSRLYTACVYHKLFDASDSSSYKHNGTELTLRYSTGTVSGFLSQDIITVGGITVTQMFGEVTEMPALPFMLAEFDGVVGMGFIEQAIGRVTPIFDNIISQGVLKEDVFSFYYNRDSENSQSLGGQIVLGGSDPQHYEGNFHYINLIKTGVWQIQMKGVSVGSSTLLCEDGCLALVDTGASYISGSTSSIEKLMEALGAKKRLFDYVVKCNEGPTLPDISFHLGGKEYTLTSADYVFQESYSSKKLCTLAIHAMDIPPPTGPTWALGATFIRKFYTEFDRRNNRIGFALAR
Nature of the experiment: human renin-renin substrate reaction in vitro; radioimmunoassay of angiotensin-I released in human plasma. It counts as biochemical. The source says:
Preliminary activity test results in the human […] substrate reaction in vitro are given, with comparative figures for the tetrapeptide analogue (III). […] The test results given herein are based on the methods described by J. A. Miller et al in Clinica Chimica Acta (1980) 101 5-15 and K. Poulsen and J. Jorgensen in J. Clin. Endocrinol. Metab. (1974) 39 816, and is based on the measurement, by radioimmunoassay, of angiotensin-I released from human renin substrate by human resin in human plasma. The inhibitor is dissolved in 0.01N HCl (10 μl) and added to hmman plasma (75 μl) containing EDTA, and angiotensin-I antibody (15 μl) in 3M-Tris/HCl buffer (pH 6.9). After incubation at 37° C. for 0-120 minutes, the enzymic reaction is quenched by the addition of ice-cold 0.25M Tris/HCl buffer (pH 7.4) containing 0.01% of bovine serum albumin. 125I-labelled angiotensin-I is added, followed by equilibration at 4° C. for 48 hours. Free and bound ligand are separated by the addition of dextrancoated charcoal, and the amount of bound radio-ligand determined in a gamma counter.

The mark [1] stands for this setting: Table I, human renin in human plasma, read-out: IC50, μM human.
Where [2] appears, read: Table 5, human renin-renin substrate reaction in vitro, read-out: IC50.
Where [3] appears, read: Table 2, read-out: IC50 μM v/s human renin.

Regarding `CC[C@H](C)[C@H](NC(=O)[C@@H](NC[C@H](CC(C)C)NC(=O)[C@H](Cc1c[nH]cn1)NC(=O)[C@H](Cc1ccccc1)NC(=O)[C@@H]1CCCN1C(=O)[C@H](Cc1c[nH]cn1)NC(=O)[C@@H]1CCCN1)C(C)C)C(=O)N[C@@H](Cc1c[nH]cn1)C(=O)O` [XXII] (H-PHPFH-{Leuψ(CH2NH)ValIleHisOH}), under setting [1], the IC50 stood at 0.01 µM.

For `CC(C)C[C@@H](CN[C@H](C(=O)N[C@H](C(=O)N[C@@H](Cc1ccc(O)cc1)C(=O)O)C(C)C)C(C)C)NC(=O)[C@H](Cc1c[nH]cn1)NC(=O)[C@H](Cc1ccccc1)NC(=O)[C@@H]1CCCN1C(=O)[C@@H](N)Cc1c[nH]cn1` [Example XII], the IC50 under setting [2] is 1.5 µM.

Turning to `CC[C@H](C)[C@H](NC(=O)[C@@H](NC[C@H](CC(C)C)NC(=O)[C@H](Cc1c[nH]cn1)NC(=O)[C@H](Cc1ccccc1)NC(=O)[C@@H]1CCCN1C(=O)[C@H](N)Cc1c[nH]cn1)C(C)C)C(=O)N[C@@H](Cc1c[nH]cn1)C(=O)N[C@H](CCCCN)C(=O)O` [XXXIX], under setting [1], the IC50 is 0.2 µM.

On to `CC[C@H](C)[C@H](NC(=O)[C@@H](NC[C@H](CC(C)C)NC(=O)[C@H](Cc1c[nH]cn1)NC(=O)[C@H](Cc1ccccc1)NC(=O)[C@@H]1CCCN1C(C)=O)C(C)C)C(=O)N[C@@H](Cc1c[nH]cn1)C(=O)N[C@H](CCCCN)C(=O)O` [XXXVII], for which the IC50 under setting [1] came out at 0.6 µM.

For the molecule `CC[C@H](C)[C@H](NC(=O)[C@@H](NC[C@H](CC(C)C)NC(=O)[C@H](Cc1c[nH]cn1)NC(=O)[C@H](Cc1ccccc1)NC(=O)[C@@H]1CCCN1C(=O)[C@H](Cc1c[nH]cn1)NC(=O)[C@@H]1CCCN1)C(C)C)C(=O)N[C@@H](Cc1c[nH]cn1)C(=O)N[C@H](CCCCN)C(=O)O` [XXXVIII], the IC50 under setting [1] amounted to 0.1 µM.

Turning to `CC[C@H](C)[C@H](NC(=O)[C@@H](NC[C@H](CC(C)C)NC(=O)[C@H](Cc1c[nH]cn1)NC(=O)[C@H](Cc1ccccc1)NC(=O)[C@@H]1CCCN1C(=O)[C@@H](N)Cc1c[nH]cn1)C(C)C)C(=O)N[C@@H](Cc1c[nH]cn1)C(=O)O` [Example V, H-His-Pro-Phe-His-Leu-reduced-Val-Ile-His-OH] (H-HPFH-{Leuψ(CH2NH)ValIleHisOH}), the IC50 under setting [2] stood at 0.26 µM.

Take `CC[C@H](C)[C@H](NC(=O)[C@@H](NC[C@H](CC(C)C)NC(=O)[C@H](Cc1c[nH]cn1)NC(=O)[C@H](Cc1ccccc1)NC(=O)[C@@H]1CCCN1C(=O)[C@H](Cc1c[nH]cn1)NC(=O)[C@H]1CCCN1)C(C)C)C(=O)N[C@@H](Cc1c[nH]cn1)C(=O)O` [XXIII] (H-[dP]HPFH-{Leuψ(CH2NH)ValIleHisOH}): under setting [1], the IC50 was determined as 0.025 µM.

For `CC(C)C[C@@H](CN[C@@H](CC(C)C)C(=O)N[C@H](C(=O)N[C@@H](Cc1ccc(O)cc1)C(=O)O)C(C)C)NC(=O)[C@H](Cc1c[nH]cn1)NC(=O)[C@H](Cc1ccccc1)NC(=O)[C@@H]1CCCN1` [Example II, H-Pro-Phe-His-Leu-reduced-Leu-Val-Tyr-OH], the IC50 under setting [2] came out at 17 µM.

Regarding `CC[C@H](C)[C@H](NC(=O)[C@@H](NC[C@H](CC(C)C)NC(=O)[C@H](Cc1c[nH]cn1)NC(=O)[C@H](Cc1ccccc1)NC(=O)[C@@H]1CCCN1C(=O)[C@@H](N)Cc1c[nH]cn1)C(C)C)C(=O)N[C@@H](Cc1c[nH]cn1)C(=O)N[C@@H](CCCCN)C(=O)O` [XXXI], the IC50 under setting [1] stood at 0.06 µM.

Regarding `CC[C@H](C)[C@H](NC(=O)[C@@H](NC[C@H](CC(C)C)NC(=O)[C@H](Cc1c[nH]cn1)NC(=O)[C@H](Cc1ccccc1)NC(=O)[C@@H]1CCCN1C(=O)[C@H](Cc1c[nH]cn1)NC(=O)[C@@H]1CCCN1)C(C)C)C(=O)N[C@@H](Cc1c[nH]cn1)C(=O)N[C@@H](CCCCN)C(=O)O` [XIX], the IC50 under setting [1] was 0.008 µM.

With `CC[C@H](C)[C@H](NC(=O)[C@@H](NC[C@H](CC(C)C)NC(=O)[C@H](Cc1c[nH]cn1)NC(=O)[C@H](Cc1ccccc1)NC(=O)[C@H]1CCCN1C(=O)[C@@H](N)Cc1c[nH]cn1)C(C)C)C(=O)N[C@@H](Cc1c[nH]cn1)C(=O)O` [XXXII] (H-H[dP]FH-{Leuψ(CH2NH)ValIleHisOH}), the IC50 under setting [1] was determined as 5.5 µM.

Turning to `CC[C@H](C)[C@H](NC(=O)[C@@H](NC[C@H](CC(C)C)NC(=O)[C@H](Cc1c[nH]cn1)NC(=O)[C@H](Cc1ccccc1)NC(=O)[C@@H]1CCCN1C(=O)[C@@H](N)CCCNC(=N)N)C(C)C)C(=O)N[C@@H](Cc1ccc(O)cc1)C(=O)O` [XXIV], the IC50 under setting [1] is 0.55 µM.

As to `CC[C@H](C)[C@H](NC(=O)[C@@H](C[C@H](O)[C@@H](N)CC(C)C)C(C)C)C(=O)N[C@@H](Cc1c[nH]cn1)C(=O)N[C@@H](CCCCN)C(=O)O` [Example XLI], the IC50 under setting [3] was 11 µM.

On to “HPFHLVIH [corresponding nonisosteric peptide, reference compound]”, for which the IC50 under setting [2] stood at 400 µM.

Regarding `CC(C)[C@H](NC(=O)[C@H](Cc1ccccc1)NC[C@H](Cc1ccccc1)NC(=O)[C@H](Cc1c[nH]cn1)NC(=O)[C@H](Cc1ccccc1)NC(=O)[C@@H]1CCCN1C(=O)[C@H](Cc1c[nH]cn1)NC(=O)[C@@H]1CCCN1)C(=O)N[C@@H](Cc1ccc(O)cc1)C(=O)N[C@@H](CCCCN)C(=O)O` [Example XI], under setting [2], the IC50 came to 0.05 µM.

In the case of `CC[C@H](C)[C@H](NC(=O)[C@@H](NC[C@H](CC(C)C)NC(=O)[C@H](Cc1c[nH]cn1)NC(=O)[C@H](Cc1ccccc1)NC(=O)[C@@H]1CCCN1C(=O)[C@@H](N)Cc1c[nH]cn1)C(C)C)C(=O)N[C@@H](Cc1ccc(O)cc1)C(=O)O` [Example X], the IC50 under setting [2] stood at 0.2 µM.

As for `CC(C)C[C@@H](CN([C@@H](CC(C)C)C(=O)N[C@H](C(=O)N[C@@H](Cc1ccc(O)cc1)C(=O)O)C(C)C)S(=O)(=O)c1ccccc1)NC(=O)[C@H](Cc1c[nH]cn1)NC(=O)[C@H](Cc1ccccc1)NC(=O)[C@@H]1CCCN1C(=O)[C@@H](N)Cc1c[nH]cn1` [Example III, H-His-Pro-Phe-His-Leu-reduced (SO2 Ph)-Leu-Val-Tyr-OH], the IC50 under setting [2] is 1.5 µM.

With `CC(C)C[C@@H](CN[C@@H](Cc1ccccc1)C(=O)N[C@H](C(=O)N[C@@H](Cc1ccc(O)cc1)C(=O)O)C(C)C)NC(=O)[C@H](Cc1c[nH]cn1)NC(=O)[C@H](Cc1ccccc1)NC(=O)[C@@H]1CCCN1C(=O)[C@@H](N)Cc1c[nH]cn1` [Example IX], under setting [2], the IC50 is 2.5 µM.

With `CC[C@H](C)[C@H](NC(=O)[C@@H](C[C@H](O)[C@H](CC(C)C)NC(=O)[C@H](Cc1c[nH]cn1)NC(=O)[C@@H](N)Cc1ccccc1)C(C)C)C(=O)N[C@@H](Cc1c[nH]cn1)C(=O)O` [Example XLVII] (H-FH[X1]IH-OH), the IC50 under setting [3] is 5 µM.

For `CC[C@H](C)[C@H](NC(=O)[C@@H](C[C@H](O)[C@@H](N)CC(C)C)C(C)C)C(=O)N[C@@H](Cc1c[nH]cn1)C(=O)O` [XLIII], the IC50 under setting [3] is 29 µM.

On to `CC[C@H](C)[C@H](NC(=O)[C@@H](C[C@H](O)[C@H](CC(C)C)NC(=O)[C@H](Cc1c[nH]cn1)NC(=O)[C@H](Cc1ccccc1)NC(=O)OC(C)(C)C)C(C)C)C(=O)N[C@@H](Cc1c[nH]cn1)C(=O)OC` [Example LI] (Boc-FH[X1]IH-OMe), for which the IC50 under setting [3] was found to be 0.0035 µM.

On to `CC(C)[C@H](NC(=O)[C@H](Cc1ccccc1)NC[C@H](Cc1ccccc1)NC(=O)[C@H](Cc1c[nH]cn1)NC(=O)[C@H](Cc1ccccc1)NC(=O)[C@@H]1CCCN1C(=O)[C@@H](N)Cc1c[nH]cn1)C(=O)N[C@@H](Cc1ccc(O)cc1)C(=O)O` [Example VIII], for which the IC50 under setting [2] worked out at 1.3 µM.

Regarding `CC(C)C[C@@H](CN[C@H](C(=O)N[C@@H](Cc1c[nH]cn1)C(=O)NCCCN)C(C)C)NC(=O)[C@H](Cc1c[nH]cn1)NC(=O)[C@H](Cc1ccccc1)NC(=O)[C@@H]1CCCN1C(=O)[C@H](Cc1c[nH]cn1)NC(=O)[C@@H]1CCCN1` [XVII] (H-PHPFH-X2), under setting [1], the IC50 came out at 4.5 µM.

Regarding `CC[C@H](C)[C@H](NC(=O)CC[C@H](O)[C@H](CC(C)C)NC(=O)[C@H](Cc1c[nH]cn1)NC(=O)[C@H](Cc1ccccc1)NC(=O)OC(C)(C)C)C(=O)N[C@@H](Cc1c[nH]cn1)C(=O)O` [Example XLVIII] (Boc-FH[X4]IH-OH), the IC50 under setting [3] was determined as 0.3 µM.

For `CC[C@H](C)[C@H](NC(=O)[C@@H](NC[C@H](CC(C)C)NC(=O)[C@H](Cc1c[nH]cn1)NC(=O)[C@H](Cc1ccccc1)NC(=O)[C@@H]1CCCN1C(=O)[C@@H](N)Cc1c[nH]cn1)C(C)C)C(=O)N[C@@H](Cc1c[nH]cn1)C(=O)N[C@H](CCCCN)C(=O)O` [XXI], the IC50 under setting [1] came out at 0.05 µM.

As for `CC[C@H](C)[C@H](NC(=O)[C@@H](NC[C@H](CC(C)C)NC(=O)[C@H](Cc1c[nH]cn1)NC(=O)[C@H](Cc1ccccc1)NC(=O)[C@@H]1CCCN1C(=O)[C@@H](N)Cc1c[nH]cn1)C(C)C)C(=O)N[C@H](Cc1ccc(O)cc1)C(=O)O` [XVI], the IC50 under setting [1] was 1 µM.

Regarding `CC[C@H](C)[C@H](NC(=O)[C@@H](C[C@H](O)[C@H](CC(C)C)NC(=O)[C@H](Cc1c[nH]cn1)NC(=O)[C@H](Cc1ccccc1)NC(=O)OC(C)(C)C)C(C)C)C(=O)N[C@@H](Cc1ccccc1)C(=O)OC` [XLIX] (Boc-FH[X1]IF-OMe), under setting [3], the IC50 came to 0.018 µM.
